Values of other authors as cited in patent US20050233013A1, “Methods for enhancing the transport of glucose for balancing blood sugar levels” (priority 2004, published 2005).

Test system: pancreatic beta cell
Conditions: micromolar concentrations; glucose dependent; Sauvaire et al, Diabetes 47:206 (1998)

In the case of `C[C@@H]([C@H](C)O)[C@H](N)C(=O)O` [major isomer (2S, 3R, 4S), (2S, 3R, 4S)-4-hydroxyisoleucine], the glucose-induced insulin secretion is listed as “stimulate glucose-induced insulin secretion”.
